“And” between values parts separate entries of the source, which are not always exact repeats. Identical values can stand only once. Where a SMILES comes first, the peptide text is derived from it. [ ]: non-standard residue; d: D form. Hyp = O=C(O)[C@@H]1C[C@@H](O)CN1
Legend:
CCL2/MCP-1 = test: Example 8 main study Luminex, LPS hPBMCs: CCL2/MCP-1; assay type: cell-based, human; settings: for CCL2/MCP-1 Concentration, Mean / CCL2/MCP-1 Concentration: no LPS; for CCL2/MCP-1 Concentration: single replicates
Protocol: (§1) Human PBMCs were pretreated with YY-101, YDE-011, YDE-043 or reference compound; Xiidra® at various concentration (ranging from […] to 500 nM) for 2 h before stimulation. An equal volume of 0.5% DMSO was used as a vehicle control. Then, the cells were treated with LPS at 5 ug/ml, which was selected based on the pilot study. The supernatants from treated cells were harvested at 24 h and placed in a 96 well for Luminex cytokine & chemokine profiling using a Luminex 200 multiplex assay (Luminex; R&D system, USA).
(§2) The main study arm with triplicate wells per group in a 24-well plate: • 1. Blank • 2. PBMC: 0.5% DMSO • 3. PBMC+LPS (5 ug/ml) • 4. PBMC+YY-101 500 nM • 5. PBMC+YY-101 50 nM • 6. PBMC+YY-101 5 nM • 7. PBMC+YY-101 0.5 nM • 8. PBMC+LPS (5 ug/ml)+Xiidra® 500 nM • 9. PBMC+LPS (5 ug/ml)+Xiidra® 50 nM • 10. PBMC+LPS (5 ug/ml)+Xiidra® 5 nM • 11. PBMC+LPS (5 ug/ml)+Xiidra® 0.5 nM • 12. PBMC+LPS (5 ug/ml)+Xiidra® 0.05 nM • 13. PBMC+LPS (5 ug/ml)+Xiidra® 0.005 nM • 14. PBMC+LPS (5 ug/ml)+YY-101 500 nM • 15. PBMC+LPS (5 ug/ml)+YY-101 50 nM • 16. PBMC+LPS (5 ug/ml)+YY-101 5 nM • 17. PBMC+LPS (5 ug/ml)+YY-101 0.5 nM • 18. PBMC+LPS (5 ug/ml)+YY-101 0.05 nM • 19. PBMC+LPS (5 ug/ml)+YY-101 0.005 nM • 20. PBMC+LPS (5 ug/ml)+YDE-011 500 nM • 21. PBMC+LPS (5 ug/ml)+YDE-011 50 nM • 22. PBMC+LPS (5 ug/ml)+YDE-011 5 nM • 23. PBMC+LPS (5 ug/ml)+YDE-011 0.5 nM • 24. PBMC+LPS (5 ug/ml)+YDE-011 0.05 nM • 25. PBMC+LPS (5 ug/ml)+YDE-011 0.005 nM • 26. PBMC+LPS (5 ug/ml)+YDE-043 500 nM • 27. PBMC+LPS (5 ug/ml)+YDE-043 50 nM • 28. PBMC+LPS (5 ug/ml)+YDE-043 5 nM • 29. PBMC+LPS (5 ug/ml)+YDE-043 0.5 nM • 30. PBMC+LPS (5 ug/ml)+YDE-043 0.05 nM • 31. PBMC+LPS (5 ug/ml)+YDE-043 0.005 nM
(§3) Multiplex assay was used to measure 30 cytokines and chemokines. The 1:200 diluted cell supernatant and serial dilution of the standard were dispensed into a 96 well plate at 50 ul/well. Then, the pre-mixed cocktail of antibody-coated magnetic beads was dispensed at 50 ul/well and incubated at room temperature for 2 h in a horizontal orbital microplate shaker at 800±500 rpm. The beads were washed using a magnetic device to prevent loss. The biotin-antibody was dispensed in 50 ul of each well and incubated at room temperature for 1 h in a shaker at 800±500 rpm. After washing, streptavidin-PE was added at 50 ul/well and incubated at room temperature for 30 min in a shaker under the same conditions. Finally, after washing, wash buffer (100 ul/well) was added to the plate and incubated in a shaker for 2 min. The Luminex™ 200 setting were set according to the manufacturer's protocol. The data was calculated with a standard five-parameter logistic nonlinear regression analysis of the data (xPonent software 4.2, USA). Results were presented as concentration (ng/ml or pg/ml).

Leptin = test: Example 8 main study Luminex, LPS hPBMCs: Leptin; assay type: cell-based, human
Protocol: as §1, §2, §3

[1] = system: cytokine and chemokine release in human peripheral blood mononuclear cells (hPBMCs); test: Luminex multiplex, 30 cytokines and chemokines, LPS stimulated hPBMCs, main study (Example 8, Study 1), whole panel; assay type: cell-based
Protocol: Human PBMCs frozen in a cryopreserve was thawed, washed with Hank's Balanced Salt Solution containing 10% Fetal bovine serum, and seeded onto a 24-well plate at a density of 1×10^6 cells/well with culture RPMI media containing 10% Fetal bovine serum in growth media in a 24 well plate for 12, 24, and 48 hrs and maintained at 37° C. in an atmosphere of 95% air and 5% CO2.
as §1, §2
as §3, with “After washing, streptavidin-PE was added at 50 ul/well and incubated at room temperature for 30 min in a shaker under the same conditions. Finally, after washing, wash buffer (100 ul/well) was added to the plate and incubated in a shaker for 2 min. The Luminex™ 200 setting were set according to the manufacturer's protocol.” left out, “Results were presented as concentration (ng/ml or pg/ml).” left out

[2] = PBMC + LPS(5 ug/ml), test article 0.005 nM
[3] = PBMC + LPS(5 ug/ml), test article 0.05 nM
[4] = PBMC + LPS(5 ug/ml), test article 0.5 nM
[5] = PBMC + LPS(5 ug/ml), test article 5 nM
[6] = PBMC + LPS(5 ug/ml), test article 50 nM
[7] = PBMC + LPS(5 ug/ml), test article 500 nM
[8] = PBMC without LPS, test article 0.5 nM
[9] = PBMC without LPS, test article 5 nM
[10] = PBMC without LPS, test article 0.05 uM
[11] = PBMC without LPS, test article 50 nM
[12] = PBMC without LPS, test article 500 nM

Q: Which “CCL2/MCP-1 Concentration, Mean” value (CCL2/MCP-1; PBMC + YY101 0.5 nM) does the source give for `CC(C)C[C@H](NC(=O)CNC(=O)[C@H](CC(=O)O)NC(=O)[C@H](CCC(N)=O)NC(=O)CNC(=O)[C@@H]1C[C@@H](O)CN1)C(=O)N[C@@H](C)C(=O)NCC(=O)N1CCC[C@H]1C(=O)N[C@@H](CCCCN)C(=O)O` [YY-101] (H-[Hyp]GQDGLAGPK-OH; N-terminus and C-terminus assumed) here?
A: 4679.6 pg/mL

Q: What about the “CCL2/MCP-1 Concentration” value (CCL2/MCP-1; PBMC + YY101 0.5 nM) of the same molecule?
A: 4528.4 pg/mL and 4830.8 pg/mL

Q: And the “CCL2/MCP-1 Concentration, Mean” value (CCL2/MCP-1; PBMC + YY101 5 nM)?
A: 4425.5 pg/mL

Q: What about the “CCL2/MCP-1 Concentration” value (CCL2/MCP-1; PBMC + YY101 5 nM) of the same molecule?
A: 4425.5 pg/mL

Q: What about the “CCL2/MCP-1 Concentration, Mean” value (CCL2/MCP-1; PBMC + YY101 0.05 uM) of the same molecule?
A: 5025.5 pg/mL

Q: And the “CCL2/MCP-1 Concentration” value (CCL2/MCP-1; PBMC + YY101 0.05 uM)?
A: 5782.0 pg/mL and 4269.1 pg/mL

Q: What about the “CCL2/MCP-1 Concentration, Mean” value (CCL2/MCP-1; PBMC + YY101 50 nM) of the same molecule?
A: 4373.5 pg/mL

Q: What about the “CCL2/MCP-1 Concentration” value (CCL2/MCP-1; PBMC + YY101 50 nM) of the same molecule?
A: 4321.5 pg/mL and 4425.5 pg/mL

Q: What about the “CCL2/MCP-1 Concentration, Mean” value (CCL2/MCP-1; PBMC + YY101 500 nM) of the same molecule?
A: 4475.9 pg/mL

Q: What about the “CCL2/MCP-1 Concentration” value (CCL2/MCP-1; PBMC + YY101 500 nM) of the same molecule?
A: 4321.5 pg/mL and 4630.2 pg/mL

Q: What about the “LPS-induced CCL-2 (in words)” value (CCL2/MCP-1; at as low as 5 μM, LPS 5 ug/mL 24 hrs) of the same molecule?
A: significantly reduced

Q: What about the “Leptin Concentration (pg/ml), Mean” value (Leptin; [2]) of the same molecule?
A: 16686.7 pg/mL

Q: And the “Leptin Concentration (pg/ml), single replicates” value (Leptin; [2])?
A: 19789.4 pg/ml (2×) and 10481.4 pg/ml

Q: And the “Leptin Concentration (pg/ml), Mean” value (Leptin; [3])?
A: 16746.9 pg/mL

Q: What about the “Leptin Concentration (pg/ml), single replicates” value (Leptin; [3]) of the same molecule?
A: 17222.7 pg/ml (2×) and 15795.3 pg/ml

Q: And the “Leptin Concentration (pg/ml), Mean” value (Leptin; [4])?
A: 16226.8 pg/mL

Q: What about the “Leptin Concentration (pg/ml), single replicates” value (Leptin; [4]) of the same molecule?
A: 17222.7 pg/ml (2×) and 14234.9 pg/ml

Q: And the “Leptin Concentration (pg/ml), Mean” value (Leptin; [5])?
A: 21157.1 pg/mL

Q: What about the “Leptin Concentration (pg/ml), single replicates” value (Leptin; [5]) of the same molecule?
A: 22079.2 pg/mL and 17222.7 pg/mL and 24169.3 pg/mL

Q: What about the “Leptin Concentration (pg/ml), Mean” value (Leptin; [6]) of the same molecule?
A: 15230.8 pg/mL

Q: What about the “Leptin Concentration (pg/ml), single replicates” value (Leptin; [6]) of the same molecule?
A: 17222.7 pg/ml and 14234.9 pg/ml (2×)

Q: What about the “Leptin Concentration (pg/ml), Mean” value (Leptin; [7]) of the same molecule?
A: 18933.8 pg/mL

Q: What about the “Leptin Concentration (pg/ml), single replicates” value (Leptin; [7]) of the same molecule?
A: 19789.4 pg/ml (2×) and 17222.7 pg/ml

Q: What about the “Leptin Concentration (pg/ml), Mean” value (Leptin; [8]) of the same molecule?
A: 15728.8 pg/mL

Q: What about the “Leptin Concentration (pg/ml), single replicates” value (Leptin; [8]) of the same molecule?
A: 14234.9 pg/mL and 17222.7 pg/mL

Q: What about the “Leptin Concentration (pg/ml), Mean” value (Leptin; [9]) of the same molecule?
A: 19092.9 pg/mL

Q: And the “Leptin Concentration (pg/ml), single replicates” value (Leptin; [9])?
A: 17222.7 pg/mL and 20963.1 pg/mL

Q: What about the “Leptin Concentration (pg/ml), Mean” value (Leptin; [10]) of the same molecule?
A: 18506.0 pg/mL

Q: What about the “Leptin Concentration (pg/ml), single replicates” value (Leptin; [10]) of the same molecule?
A: 19789.4 pg/mL and 17222.7 pg/mL

Q: And the “Leptin Concentration (pg/ml), Mean” value (Leptin; [11])?
A: 24092.8 pg/mL

Q: What about the “Leptin Concentration (pg/ml), single replicates” value (Leptin; [11]) of the same molecule?
A: 26106.3 pg/mL and 22079.2 pg/mL

Q: What about the “Leptin Concentration (pg/ml), Mean” value (Leptin; [12]) of the same molecule?
A: 20376.3 pg/mL

Q: What about the “Leptin Concentration (pg/ml), single replicates” value (Leptin; [12]) of the same molecule?
A: 19789.4 pg/mL and 20963.1 pg/mL

Q: And the “LPS-induced cytokine/chemokine levels, whole panel (in words)” value ([1]; LPS 5 ug/mL 24 hrs, up to 500 nM)?
A: potently and significantly reduced pro-inflammatory cytokine/chemokine production

Q: What about the “basal levels of cytokine production (in words)” value ([1]; no LPS) of the same molecule?
A: didn't affect the basal levels of cytokine production
